Here are results for 14 compounds from PubChem BioAssay (NCI).

What all share (experiment): inhibition of tumour cell growth, NCI panel, 48 h
The subject of experiment [1] is SF-539 CNS.
The test system of experiment [2] is PC-3 prostate.
In experiment [3] the test system is TK-10 renal.
The test system of experiment [4] is MCF7 breast.
The subject of experiment [5] is SK-MEL-5 melanoma.
For experiment [6], the system named is A498 renal.
Experiment [7] relates to SNB-19 CNS.
Experiment [8] concerns A549 NSCLC.
The subject of experiment [9] is U251 CNS.
Experiment [10] relates to M14 melanoma.

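96-well plates; 48 h exposure; 5 concentrations. Endpoints by linear interpolation between flanking doses. Not reached: highest tested concentration assigned. Definition used: TGI = concentration required for complete inhibition of growth.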 A value given as a limit tells only on which side of the number the result lay.

On to `CC(C)OP(=O)(CN(C)/C(F)=N\C(F)(F)F)OC(C)C`, for which the TGI in [1], in [2], in [3], in experiment [4], in experiment [5] and in experiment [6] was more than 100 µM throughout. Also, the TGI in experiment [7], in experiment [8], in experiment [9] and in experiment [10] was more than 100 µM in each case.

In the case of `C1COC(NC(C2CC2)C2CC2)=N1`, the TGI in experiment [1], in experiment [2], in experiment [3], in experiment [4], in [5] and in experiment [6] was more than 100 µM in each case. For the same compound, the TGI in experiment [7], in [8], in [9] and in [10] was more than 100 µM each time.

With `CC(C)C(C/C=C1/CC(CO)(COC(=O)CC(C(C)C)C(C)C)OC1=O)C(C)C` (configuration not stated), the TGI in experiment [1] is 23.8 µM; in [2], 20.2 µM; in experiment [3], 16.1 µM; in experiment [4], 28.4 µM; in experiment [5], 22.3 µM; in experiment [6], 11 µM. Moreover, the TGI in experiment [7] was 25.8 µM; in [8], 14.6 µM; in [9], 25.3 µM; in experiment [10], 26.8 µM.

Turning to `COc1ccc2c3c1OC1C(=O)C=CC4(O)C(C2)NCC[C@@]314` (some centres not stated), the TGI in [1] was found to be 4.02 µM; in experiment [2] it was 12.2 µM; in [3], 4.99 µM; in [4] it was 9.17 µM; in experiment [5] it was 16.4 µM; in experiment [6], 9.39 µM. Also, the TGI in experiment [7] came to 19.1 µM; in experiment [8] it was 18.2 µM; in experiment [9], 7.15 µM; in experiment [10], 6.61 µM.

As for `Cc1nc2c(o1)C(=O)c1ccccc1/C2=N/c1ccccn1`, the TGI was 33.2 µM in experiment [1]; more than 100 µM in experiment [2]; more than 100 µM in [3]; 33.9 µM in [4]; 30.4 µM in experiment [5]; 30.7 µM in experiment [6]. In addition, the TGI in [7] is 28.3 µM; in experiment [8], more than 100 µM; in [9], 30.4 µM; in experiment [10], 33.6 µM.

Regarding `CC(=O)OC1CC2CCC1(C)C2(C)C` (configuration not stated), the TGI in experiment [1], in [2], in experiment [3], in [4], in [6] and in experiment [7] was more than 100 µM each time. The TGI in experiment [9] and in experiment [10] was more than 100 µM throughout.

`CN1CCC2(CC1)C(=O)N(N1CCCCCC1)C(=O)N2c1ccccc1`: the TGI in experiment [1], in experiment [2], in experiment [3], in [4], in experiment [5] and in experiment [6] was more than 100 µM each time. In addition, the TGI in experiment [7], in experiment [8], in [9] and in experiment [10] was more than 100 µM in each case.

Consider `O=C1c2ccccc2CC12Cc1cc3c(cc1C2=O)CCC3` (configuration not stated), for which the TGI in [1], in experiment [2], in [3], in experiment [4], in experiment [5] and in experiment [6] was more than 100 µM throughout. The TGI in [7], in experiment [8], in [9] and in experiment [10] was more than 100 µM each time.

`CCOP(=O)(/C=C\n1cnc2c(=O)n(C(C)=O)c(N)nc21)OCC`: the TGI in experiment [1], in [2], in experiment [3], in experiment [4], in experiment [5] and in experiment [6] was more than 100 µM in each case. In addition, the TGI in experiment [7], in [8], in [9] and in [10] was more than 100 µM throughout.

With `CC(=O)O[C@H]1C[C@]2(C)C(CCC3O[C@@]32C)[C@@]2(CC(c3ccoc3)OC2O)[C@@H]1C` (some centres not stated), the TGI in experiment [1], in [2], in [3], in experiment [4], in experiment [5] and in experiment [6] was more than 100 µM throughout. For the same compound, the TGI in experiment [7], in experiment [8], in [9] and in experiment [10] was more than 100 µM throughout.

As for `O=C1NC2(CCCCC2)N=C2C(Cl)CCCC12Cl` (configuration not stated), the TGI in [1], in experiment [2], in experiment [3], in experiment [4], in experiment [5] and in experiment [6] was more than 100 µM in each case. Besides, the TGI in experiment [7], in experiment [8], in experiment [9] and in experiment [10] was more than 100 µM each time.

As for `CC(C)(C)c1ccc(CN2CCN(C(c3ccccc3)c3ccc(Cl)cc3)CC2)cc1` (configuration not stated), the TGI was more than 100 µM in experiment [1]; more than 100 µM in [2]; more than 100 µM in [3]; more than 100 µM in [4]; 73.1 µM in [5]; more than 100 µM in [6]. The TGI in [7], in experiment [8], in experiment [9] and in [10] was more than 100 µM in each case.

For `O=c1[nH]c2ccc(CC(=S)N3CCOCC3)cc2s1`, the TGI in [1], in experiment [2], in experiment [3], in experiment [4], in experiment [5] and in experiment [6] was more than 100 µM throughout. The TGI in experiment [7], in experiment [9] and in experiment [10] was more than 100 µM in each case.

Take `COC(=O)CC1(CNC(=O)OCc2ccccc2)OCCO1`: the TGI in [1], in experiment [2], in [3], in experiment [4], in experiment [5] and in [6] was more than 100 µM throughout. Besides, the TGI in [7], in experiment [8], in [9] and in [10] was more than 100 µM each time.
